Results reported in patent publication US20050132448A1, “Assay for beta cell toxic macrolides” (priority 2001, published 2005).

System: C57B1/6J mice
Assay: Size and number of pancreatic islets after vATPase inhibitors
Type: in vivo
Details: for No. islets per mm^2 pancreas section / Median size: day 84, 5 daily doses of 12 ng/g body weight; for effect on islet number and size: i.p. 12 ng/gram body weight; for Median size: insulin-positive islets
Description: The effect of vATPase inhibitors on the size and number of pancreatic islets was analysed in C57B1/6J using either bafilomycin A1 (BA1) or concanamycin A (CMA). The effect of Streptozotocin, an islet beta-cell specific toxin produced by Streptomyces achromogenes was also examined, to enable comparison with the effect of vATPase inhibitors.
Groups of 4 female C57B1/6J mice were injected with 5 doses on 5 consecutive days of 12 ng/g body weight BA1, CMA or the well characterised islet β-cell toxin streptozotocin. Pancreases were removed on day 84 and 3 formalin-fixed sections per mouse were immunostained for insulin. The area of insulin-positive islets was measured on digital images using MCID software.

Structure (SMILES)	No. islets per mm^2 pancreas section [per mm^2 pancreas section]	effect on islet number and size	Median size [μm^2]
CN(N=O)C(=O)N[C@H]1C(O)O[C@H](CO)[C@@H](O)[C@@H]1O (mixture of isomers) [Streptozotocin]	0.46	reduces the number of islets but does not induce the formation of new islets	5890
C/C=C/[C@H]1O[C@@](O)([C@@H](C)[C@H](O)[C@H](C)[C@H]2OC(=O)/C(OC)=C/C(C)=C/[C@@H](C)[C@@H](O)[C@@H](CC)[C@@H](O)[C@H](C)C/C(C)=C/C=C/[C@@H]2OC)C[C@@H](O[C@H]2C[C@@H](O)[C@H](OC(N)=O)[C@@H](C)O2)[C@@H]1C [CMA, concanamycin A]	0.78	increased the number of small islets	3170
